Data reported in the NIST ThermoML archive (doi:10.1016/j.jct.2004.09.021).

Tests used:
[1] = xn = mol fraction of the nth substance listed; conditions: 101 kPa, Liquid
[2] = refractive index (Na D-line) (dimensionless); xn = mol fraction of the nth substance listed; conditions: 101 kPa, Liquid

CCCCCCCC [octane] + COc1ccccc1
x2 = 0
Conditions | mass density, 293.15 K [kg/m3] | mass density, 298.15 K [kg/m3] | mass density, 303.15 K [kg/m3] | refractive index, 293.15 K | refractive index, 298.15 K | refractive index, 303.15 K | viscosity, 293.15 K [mPa·s] | viscosity, 298.15 K [mPa·s] | viscosity, 303.15 K [mPa·s]
[1] | 702.61 | 698.57 | 694.56 | – | – | – | 0.5464 | 0.5123 | 0.483
[2] | – | – | – | 1.3965 | 1.3947 | 1.3926 | – | – | –

CCCCCCC [heptane] + COc1ccccc1
x2 = 0
Conditions | mass density, 293.15 K [kg/m3] | mass density, 298.15 K [kg/m3] | mass density, 303.15 K [kg/m3] | refractive index, 293.15 K | refractive index, 298.15 K | refractive index, 303.15 K | viscosity, 293.15 K [mPa·s] | viscosity, 298.15 K [mPa·s] | viscosity, 303.15 K [mPa·s]
[1] | 683.96 | 679.77 | 675.5 | – | – | – | 0.4127 | 0.3909 | 0.3702
[2] | – | – | – | 1.3872 | 1.3855 | 1.3827 | – | – | –

CCCCCCCCCCCC [dodecane] + COc1ccccc1
x2 = 0
Conditions | mass density, 293.15 K [kg/m3] | mass density, 298.15 K [kg/m3] | mass density, 303.15 K [kg/m3] | refractive index, 293.15 K | refractive index, 298.15 K | refractive index, 303.15 K | viscosity, 293.15 K [mPa·s] | viscosity, 298.15 K [mPa·s] | viscosity, 303.15 K [mPa·s]
[1] | 748.78 | 745.14 | 741.52 | – | – | – | 1.487 | 1.373 | 1.25
[2] | – | – | – | 1.421 | 1.4172 | 1.4135 | – | – | –

COc1ccccc1 [anisole] + CCCCCCCCCCCC
Conditions | mass density, 293.15 K [kg/m3] | mass density, 298.15 K [kg/m3] | mass density, 303.15 K [kg/m3] | refractive index, 293.15 K | refractive index, 298.15 K | refractive index, 303.15 K | viscosity, 293.15 K [mPa·s] | viscosity, 298.15 K [mPa·s] | viscosity, 303.15 K [mPa·s]
[1], x1 = 0.0992 | 760.26 | 756.57 | 752.87 | – | – | – | 1.413 | 1.312 | 1.197
[1], x1 = 0.2015 | 773.6 | 769.83 | 766.07 | – | – | – | 1.341 | 1.248 | 1.138
[1], x1 = 0.2969 | 787.75 | 783.97 | 780.1 | – | – | – | 1.272 | 1.181 | 1.081
[1], x1 = 0.4102 | 807.23 | 803.3 | 799.35 | – | – | – | 1.19 | 1.104 | 1.003
[1], x1 = 0.4898 | 822.92 | 818.98 | 814.93 | – | – | – | 1.138 | 1.052 | 0.9616
[1], x1 = 0.6099 | 850.24 | 846.1 | 841.96 | – | – | – | 1.074 | 0.9944 | 0.9147
[1], x1 = 0.702 | 875.28 | 871.03 | 866.78 | – | – | – | 1.039 | 0.9639 | 0.8922
[1], x1 = 0.8023 | 907.62 | 903.24 | 898.86 | – | – | – | 1.032 | 0.9569 | 0.8858
[1], x1 = 0.8976 | 944.56 | 940.04 | 935.51 | – | – | – | 1.046 | 0.9718 | 0.9132
[1], x1 = 1 | 993.81 | 989.15 | 984.42 | – | – | – | 1.085 | 1.017 | 0.9285
[2], x1 = 0.106 | – | – | – | 1.4239 | 1.4199 | 1.4163 | – | – | –
[2], x1 = 0.208 | – | – | – | 1.4289 | 1.4251 | 1.4213 | – | – | –
[2], x1 = 0.29 | – | – | – | 1.4335 | 1.4298 | 1.4263 | – | – | –
[2], x1 = 0.391 | – | – | – | 1.4406 | 1.4371 | 1.4339 | – | – | –
[2], x1 = 0.4886 | – | – | – | 1.4488 | 1.4455 | 1.4426 | – | – | –
[2], x1 = 0.607 | – | – | – | 1.4601 | 1.457 | 1.4545 | – | – | –
[2], x1 = 0.7055 | – | – | – | 1.4707 | 1.4677 | 1.4654 | – | – | –
[2], x1 = 0.7845 | – | – | – | 1.4809 | 1.4779 | 1.4756 | – | – | –
[2], x1 = 0.88 | – | – | – | 1.4959 | 1.493 | 1.4908 | – | – | –
[2], x1 = 1 | – | – | – | 1.5161 | 1.5141 | 1.5129 | – | – | –

COc1ccccc1 [anisole] + CCCCCCC
Conditions | mass density, 293.15 K [kg/m3] | mass density, 298.15 K [kg/m3] | mass density, 303.15 K [kg/m3] | refractive index, 293.15 K | refractive index, 298.15 K | refractive index, 303.15 K | viscosity, 293.15 K [mPa·s] | viscosity, 298.15 K [mPa·s] | viscosity, 303.15 K [mPa·s]
[1], x1 = 0.1002 | 707.25 | 702.96 | 698.59 | – | – | – | 0.4315 | 0.4121 | 0.3918
[1], x1 = 0.2002 | 731.96 | 727.61 | 723.18 | – | – | – | 0.4541 | 0.434 | 0.4135
[1], x1 = 0.2987 | 757.78 | 753.37 | 748.88 | – | – | – | 0.4775 | 0.4581 | 0.4356
[1], x1 = 0.3994 | 785.83 | 781.36 | 776.8 | – | – | – | 0.5184 | 0.4896 | 0.4639
[1], x1 = 0.4996 | 815.43 | 810.9 | 806.29 | – | – | – | 0.5675 | 0.5347 | 0.5064
[1], x1 = 0.5958 | 845.62 | 841.04 | 836.39 | – | – | – | 0.6285 | 0.5911 | 0.5603
[1], x1 = 0.6993 | 880.28 | 875.65 | 870.94 | – | – | – | 0.7129 | 0.6692 | 0.6322
[1], x1 = 0.7981 | 915.67 | 911.07 | 906.4 | – | – | – | 0.8105 | 0.7613 | 0.7161
[1], x1 = 0.8991 | 953.76 | 949.15 | 944.46 | – | – | – | 0.9337 | 0.8767 | 0.8197
[1], x1 = 1 | 993.81 | 989.15 | 984.42 | – | – | – | 1.085 | 1.017 | 0.9285
[2], x1 = 0.1007 | – | – | – | 1.3975 | 1.3954 | 1.3924 | – | – | –
[2], x1 = 0.21 | – | – | – | 1.4087 | 1.4064 | 1.4036 | – | – | –
[2], x1 = 0.31 | – | – | – | 1.4189 | 1.4167 | 1.414 | – | – | –
[2], x1 = 0.405 | – | – | – | 1.4294 | 1.4272 | 1.4248 | – | – | –
[2], x1 = 0.4985 | – | – | – | 1.4407 | 1.4385 | 1.4362 | – | – | –
[2], x1 = 0.583 | – | – | – | 1.4516 | 1.4495 | 1.4474 | – | – | –
[2], x1 = 0.6989 | – | – | – | 1.4683 | 1.466 | 1.464 | – | – | –
[2], x1 = 0.792 | – | – | – | 1.4826 | 1.4802 | 1.4782 | – | – | –
[2], x1 = 0.8941 | – | – | – | 1.499 | 1.4966 | 1.4947 | – | – | –
[2], x1 = 1 | – | – | – | 1.5161 | 1.5141 | 1.5129 | – | – | –
